From patent US6596706B1, “Piperazine-cyclodextrin complexes” (Daiichi Pharmaceutical Co., Ltd., priority 1997, dated 2003) come the findings set out here.

Data set [1] in a line: Solubility of compound (1) in aqueous SBE7-β-CD solution or water, HPLC of filtered supernatant. Format: physicochemical. As to the method: To an aqueous solution of a β-cyclodextrin sulfobutyl ether sodium salt (product of CyDex; hereinafter may be abbreviated as SBE7-β-CD; molecular weight 2162.01; substitution ratio: 7/21 (about 33%)) (26, 40, or 72 mM; 2.5 ml) was added an excessive amount of 3-[2-[4-(3-chloro-2-methylphenyl)-1-piperadinyl]ethyl]-5,6-dimethoxy-1-(4-imidazolylmethyl)-1H-indazole,.2HCl.3.5H2O(hereinafter may be abbreviated as compound (1); molecular weight: 631.0) (400 mg). The mixture was allowed to stand for 7 days in a 25° C. water bath. During the standing period, the mixture was sonicated once a day for 15 minutes, followed by stirring for 2 minutes. On the first, fifth, and seventh days, pH of the mixture was adjusted to 4.0 by addition of adequate amount of HCl. After pH was adjusted on the seventh day, the amount of the entirety of the mixture was adjusted to 5 ml (to thereby achieve a SBE7-β-CD concentration of […]). Six days later, the mixture was subjected to centrifugal separation, to thereby collect a supernatant. […] Similarly, the solubility of the piperazine derivative (I) for water was also determined by HPLC.
(Conditions for High Performance Liquid Chromatography (HPLC))
Mobile phase: 50 mM phosphate buffer solution (pH 5.5)/acetonitrile (1:1)
Column temperature: 40° C.

A further data set deals with red blood cells. Briefly: Hemolysis activity with red blood cell suspension, absorbance at 588 nm. Format: cell-based. The following applies: for hemolysis activity of compound (1): 0.6 mM compound (1), more suppressed at higher cyclodextrin concentration, FIG. 1. The method, then:
To 10 mM isotonic phosphate buffer solution (pH 6.0, 2 ml) containing SBE7-β-CD or hydroxypropyl-β-cyclodextrin (product of Nihon Shokuhin Kako; hereinafter may be abbreviated as HP-β-CD; molecular weight 1413; substitution ratio: 4.8/21 (about 23%)) at a different concentration and 0.6 mM compound (1) (concentration that permits complete hemolysis) was added a suspension (0.2 ml) of red blood cells suspension (5%). The mixture was maintained for 30 minutes at 37° C. After centrifugal separation (1000× g, 5 min), oxyhemoglobin and methohemoglobin contained in the supernatant were determined based on the absorbance at 588 nm, to thereby investigate the hemolysis activity of compound (1).

`COc1cc2c(CCN3CCN(c4cccc(Cl)c4C)CC3)nn(Cc3c[nH]cn3)c2cc1OC.Cl.Cl` [compound (1), 3-[2-[4-(3-chloro-2-methylphenyl)-1-piperadinyl]ethyl]-5,6-dimethoxy-1-(4-imidazolylmethyl)-1H-indazole,.2HCl.3.5H2O]: the “Concentration of compound (1) in supernatant” value worked out at 14600 µM in data set [1] (Compound (1) alone, solubility for water); 19000 µM in data set [1] (SBE7-β-CD 13 mM, 25° C., pH 4.0); 25600 µM in data set [1] (SBE7-β-CD 20 mM, 25° C., pH 4.0); 56700 µM in data set [1] (SBE7-β-CD 36 mM, 25° C., pH 4.0). Further, in the data set on red blood cells (10 mM isotonic phosphate buffer pH 6.0, 30 minutes at 37° C.), the “concentration that permits complete hemolysis” value amounted to 600 µM. Also, the “hemolysis activity of compound (1)” value in the data set with red blood cells (complex formed by addition of HP-β-CD) and in the data set on red blood cells (complex formed by addition of SBE7-β-CD) was “suppressed” throughout.
